Data as given in patent US20230151342A1, “ZINC FINGER DEGRADATION DOMAINS” (THE BROAD INSTITUTE, INC, priority 2020, published 2023).
Where two headings read alike, the source gives them in different places. Where no end group is shown, it is not given here.

Key:
[1] = system: Jurkat cells expressing individual zinc fingers in the protein degradation reporter; assay: Validation of individual zinc fingers in eGFP/mCherry protein degradation reporter (single reporter degradation experiments); format: cell-based
Procedure: FIG. 18A-18B Validation of individual hybrid zinc finger degrons. (FIG. 18A) Vehicle control-normalized eGFP/mCherry fluorescence ratios measured by flow cytometry for Jurkat cells expressing the indicated minimal 23 amino acid zinc finger degron constructs after treatment with pomalidomide or vehicle control. Experiments were performed in triplicate and error bars indicate standard deviation. […] (FIG. 18B) IC50 values for lenalidomide- or pomalidomide-induced degradation of endogenous and hybrid zinc fingers calculated from single reporter degradation experiments. (FIG. 18C) Jurkat cells expressing the 19BBz-d91.3 CAR were treated overnight with lenalidomide and the E1 inhibitor MLN7243 (500 nM), the Neddylation inhibitor […] (5000 nM), the lysosomal acidification inhibitor Chloroquine (50,000 nM), or the lysosomal acidification inhibitor Bafilomycin A (100 nM). CAR degradation requires ubiquitin ligase and Cullin-RING ligase function, and is insensitive to inhibition of autophagy.
FIG. 23. Validation of individual hybrid zinc finger degrons. Individual 23 amino acid zinc finger domains were cloned into the Cilantro 2 protein degradation reporter lentivector. Jurkat cells were transduced with each of these viruses. The GFP/mCherry ratio was calculated in the presence of various thalidomide analogs, indicative of drug-dependent degradation. Dark Gray=hybrid zinc fingers. Light Gray=endogenous zinc fingers. Dotted line=ZFP91-IKZF3.
Jurkat cells were created expressing each of the 6 hybrid and 8 associated parent ZFs and subjected them to a range of doses of lenalidomide, pomalidomide, avadomide, and iberdomide. […] The IC50 for degradation was lower for the 6 hybrid ZFs than their parent ZFs (FIG. 18B). […] One of these validated hybrids, ZFP91-IKZF3, was chosen with 1.6-6.0-times lower IC50 for degradation than IKZF3 across the tested thalidomide derivatives (FIG. 11G) hereafter termed “d91.3”, as a super degron tag for further CAR engineering, which was incorporated for evaluation of on and off-switch CARs.
Jurkat cells expressing a library of 440 C2H2 zinc fingers in a eGFP/mCherry protein degradation reporter vector were treated with DMSO or thalidomide analog drug for 16 hours. mCherry^+eGFP^low cell populations were isolated by FACS in triplicate, and the relative frequency of individual ZFs was quantified with next-generation sequencing. For validation, Jurkat cells were engineered to express individual zinc fingers in the protein degradation reporter; the eGFP:mCherry ratio was determined by flow cytometry after 16 hour incubation with varying concentrations of thalidomide analogs.

[2] = system: NALM6 target cells; assay: Cytokine production in CAR T:NALM6 co-culture supernatant (Luminex); format: cell-based; details: split CAR primary T cells, NALM6, 1000 nM lenalidomide
Source text: (§1) To evaluate whether effector functions of primary T cells could be gated by lenalidomide, primary sCAR 913 T cells were generated. As the two split CAR components are delivered by separate lentivectors, this gave the ability to use FACS to purify cells expressing neither, one, or both components.
(§2) Thalidomide analogs control degradable CAR T cell activation and effector functions in vitro and in vivo. To test whether degradable CAR T cell activation could be controlled with lenalidomide, 19BBz, 19BBz-dIKZF3, 19BBz-d91.3, and 19BBz-d91.3* Jurkat CAR T cell lines were co-cultured with K562 cells engineered to express the target antigen CD19 (K562-CD19) and 11 lenalidomide concentrations or vehicle control. […] To evaluate whether effector functions of degradable CAR T cells could be controlled with lenalidomide, primary human CAR T cells were generated and cytotoxicity assays performed comparing the conventional 19BBz CAR to the degradable 19BBz-d91.3 CAR in vitro. […] Then cytokine production was analyzed in response to antigen stimulation.
(§3) Primary human CAR-T effector cells were co-cultured with NALM6 target cells engineered to express click beetle green luciferase at the indicated ratios for 16 hours. Luciferase activity was measured with a Synergy Neo2 luminescence microplate reader (Biotek). Cell culture supernatant from these experiments was analyzed for soluble cytokines (Luminex).

[3] = system: K562-CD19 cells; assay: Jurkat CAR functional assay: CD69 expression after co-culture with K562-CD19 cells; format: cell-based; details: lenalidomide
Source text: FIG. 12A-12D—ON-switch split CARs only function in the presence of lenalidomide. (FIG. 12A) Schematic of split CAR constructs. Each split CAR is composed of the indicated antigen-binding part A and the ITAM-containing part B. The lenalidomide-induced dimerization module is encoded by zinc fingers from IKZF3 or the engineered 913 zinc finger and a fragment of CRBN (CRBNΔ3). The intracellular domains of each split CAR part A is protected from CRL4^CRBN ubiquitination by K>R “K0” substitutions. The control second generation CAR FMC63-CD28-CD3z was also used. sCAR, split CAR. […] (FIG. 12C) Primary T cells were infected with lentiviruses encoding parts A and B of split CAR 913. Untransduced cells and cells expressing components A only, B only, and both A+B were purified by FACS. Cytotoxic activity of each sorted cell population was measured after overnight co-culture with NALM6 target cells and lenalidomide or vehicle control at the indicated effector:target ratios. The maximum plasma concentration for once daily 25 mg lenalidomide in multiple myeloma patients is indicated. (FIG. 12D) Scatterplots showing the production of cytokines after co-culture (1:1 CAR T:NALM6 ratio) in the presence of 1000 nM lenalidomide versus vehicle control. Experiments were performed in triplicate and error bars indicate standard deviation.
FIG. 24 Validation of lenalidomide-OFF-switch control of CAR T cell activation, as assessed by expression of the early activation marker CD69, in Jurkat T cells expressing various super-degron tagged chimeric antigen receptors. Regulation of CAR T cell activation with the indicated super-degrons, in comparison to the previously described degron d913. […]
Thalidomide analogs control degradable CAR T cell activation and effector functions in vitro and in vivo. […] Then cytokine production was analyzed in response to antigen stimulation.

[4] = system: NALM6 target cells; assay: Cellular cytotoxicity assay of primary human CAR-T cells; format: cell-based; details: 1000 nM lenalidomide; primary split CAR T cells sorted for components A, B
Source text: as §1, §2, §3

[5] = target: CRBN (substrate receptor of the CRL4^CRBN E3 ubiquitin ligase) (UniProt Q96SW2 1-442); assay: cell-based or functional assay
Sequence of CRBN (substrate receptor of the CRL4^CRBN E3 ubiquitin ligase) (Q96SW2 whole entry): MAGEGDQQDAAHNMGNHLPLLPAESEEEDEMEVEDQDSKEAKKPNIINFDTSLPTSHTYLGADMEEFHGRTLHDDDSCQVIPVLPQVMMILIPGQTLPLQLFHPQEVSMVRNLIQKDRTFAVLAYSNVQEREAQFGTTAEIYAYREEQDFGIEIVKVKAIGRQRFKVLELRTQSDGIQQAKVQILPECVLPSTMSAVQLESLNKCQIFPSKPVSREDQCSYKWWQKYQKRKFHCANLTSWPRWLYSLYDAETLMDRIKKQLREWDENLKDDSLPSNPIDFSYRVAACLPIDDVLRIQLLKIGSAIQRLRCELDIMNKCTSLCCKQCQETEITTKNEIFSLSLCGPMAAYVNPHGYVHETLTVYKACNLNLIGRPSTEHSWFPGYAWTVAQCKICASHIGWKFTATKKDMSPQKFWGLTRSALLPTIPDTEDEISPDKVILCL

[6] = CC-122-induced degradation, eGFP:mCherry ratio, 16 hour incubation, read-out: EC50 cc122
[7] = lenalidomide-induced degradation, eGFP:mCherry ratio, 16 hour incubation, read-out: EC50 len
[8] = pomalidomide-induced degradation, eGFP:mCherry ratio, 16 hour incubation, read-out: EC50 pom
[9] = lenalidomide, repeat experiment, read-out: EC50 len repeat

| Molecule | EC50 [1, 6] | EC50 [1, 7] | EC50 [1, 8] | also measured |
| --- | --- | --- | --- | --- |
| FACVICGRKFRNRGLMQKHLKNH [HZnF_11, reference compound] | 179 nM | 59.9 nM | 18.8 nM | – |
| FQCNQCGASFTQKGNLLRHIKLH [HZnF_27, reference compound] | 33.5 nM | 21.9 nM | 3.1 nM | EC50 [1, 9]: 28.2 nM |
| FQCNQCGASFTRHSHLIEHLKRH [HZnF_10] | 32.4 nM | 55.4 nM | 9.05 nM | – |
| FQCNQCGASFTRLSTLIQHQKVH [HZnF_06] | 56.1 nM | 433 nM | 21.9 nM | – |
| FQCPICGLVIKRKSYWKRHMVIH [HZnF_16, reference compound] | 50.2 nM | 60.5 nM | 8.06 nM | – |
| HECKLCGASFRTKGSLIRHHRRH [HZnF_07, reference compound] | 58.5 nM | 34.8 nM | 11.3 nM | – |
| LQCEICGFTCRQKASLNWHMKKH [HZnF_13, reference compound] | 33 nM | 57.8 nM | 5.47 nM | – |
| LQCEICGFTCRRHSHLIEHLKRH [HZnF_17] | 73.4 nM | 149 nM | 5.29 nM | – |
| LQCEICGFTCRWSSHYQYHLRQH [HZnF_04] | 101 nM | 324 nM | 14.1 nM | – |
| LQCEICGYQCRQRASLNWHMKKH [HZnF_12, reference compound] | 37 nM | 75.1 nM | – | – |
| LQCEVCGFQCRQRASLKYHMTKH [HZnF_01, reference compound] | 73.6 nM | 78.6 nM | 7.41 nM | – |
| YGCNECGKNFGRHSHLIEHLKRH [HZnF_09, reference compound] | 68.2 nM | – | 0.224 nM | – |
| YQCKVCGRAFKRLSTLIQHQKVH [HZnF_15] | 35.2 nM | 71.9 nM | 5.12 nM | – |
| YQCKVCGRAFKRVSHLTVHYRIH [8HZnF__19, label misprinted, reference compound] | 125 nM | 248 nM | 16.9 nM | – |
| YRCRACGRACSRLSTLIQHQKVH [HZnF_03, reference compound] | 29.5 nM | 55.2 nM | 4.47 nM | – |
| YSCPVCGLRFKRKDRMSYHVRSH [HZnF_02, reference compound] | 176 nM | 100 nM | – | – |
| sCAR-91.3: lenalidomide ON-switch split CAR with dimerization domain from hybrid d913 zinc finger and CRBNΔ3 (FNVLMVHKRSHTGERPLQCEICGFTCRQKGNLLRHIKLHTGEKPFKCHLCNYACQRRDAL; cysteine pairing not given here; also: fragment of split CAR, other chain or arm left off) | – | – | – | IL2 production in co-culture [2]: required the complete sCAR 91.3 and lenalidomide; fold lower EC50 than sCAR IKZF3 ([3]; Jurkat T cells exposed to CD19+ target cells): 7 fold; EC50 ([3]; split CAR-Jurkat cells co-cultured with K562-CD19, read-out: EC50 (percentage of CD69+ cells)): 29.3 nM; killing of NALM6 target cells [4]: restricted to T cells expressing both halves of sCAR 91.3 in the presence of 1000 nM lenalidomide |
| YSCPVCGLRFKRKDRMSYHVRSH (not fully specified; cysteine pairing not given here) [PATZ1_383_405-PATZ1_383_405_J1] | – | – | – | EC50 pom: pomalidomide-induced degradation, eGFP/mCherry reporter, Jurkat [5]: 32.4 nM |
| LQCEICGYQCRQRASLNWHMKKH (not fully specified; cysteine pairing not given here) [ZN653_556_578-ZN653_556_578_J1] | – | – | – | EC50 pom: pomalidomide-induced degradation, eGFP/mCherry reporter, Jurkat [5]: 5.17 nM |
| LQCEICGYQCRRKDRMSYHVRSH (not fully specified; cysteine pairing not given here) [ZN653_556_578-PATZ1_383_405_J1] | – | – | – | EC50 pom: pomalidomide-induced degradation, eGFP/mCherry reporter, Jurkat [5]: 0.16 nM |

The remaining molecules from weak to strong by EC50 [1, 6], led by results:

| EC50 [1, 6] | EC50 [1, 7] | EC50 [1, 8] | Molecule | also measured |
| --- | --- | --- | --- | --- |
| 26 nM | 83.1 nM | 5.19 nM | YQCKVCGRAFKQKGNLLRHIKLH [HZnF_14] | – |
| 13.4 nM | 22.9 nM | 0.78 nM | LQCEICGFTCRQKGNLLRHIKLH (FHCNQCGASFTQKGNLLRHIKLH) [HZnF_26] | EC50 [1, 9]: 29.4 nM |
| 10.1 nM | 18.3 nM | 3.61 nM | FQCNQCGASFTTKGSLIRHHRRH [HZnF_08] | – |
| 7.07 nM | 22.5 nM | 1.86 nM | LQCEICGYQCRRLSTLIQHQKVH [HZnF_1, label misprinted] | – |
| 5.67 nM | 10.1 nM | 0.46 nM | LQCEVCGFQCRQPKSLARHLRLH [HZnF_24] | EC50 [1, 9]: 15 nM |
| 5.22 nM | 4.59 nM | 1.05 nM | FQCNQCGASFTQPKSLARHLRLH [HZnF_20] | EC50 [1, 9]: 6.09 nM |
| 2.93 nM | 48 nM | 8.55 nM | FVCPRCGRGFSQPKSLARHLRLH [HZnF_05, reference compound] | – |
| 2.46 nM | 11.2 nM | 0.311 nM | FQCPICGLVIKRHSHLIEHLKRH [HZnF_21] | EC50 [1, 9]: 8.23 nM |
| 2.42 nM | 12.2 nM | 0.212 nM | LQCEICGYQCRQPKSLARHLRLH [HZnF_22] | EC50 [1, 9]: 6.59 nM |
| 0.983 nM | 6.45 nM | 0.146 nM | LQCEICGFTCRQPKSLARHLRLH [HZnF_23] | EC50 [1, 9]: 4.66 nM |
| 0.693 nM | 6.64 nM | – | LQCEICGYQCRRKDRMSYHVRSH [HZnF_25] | EC50 [1, 9]: 3.53 nM; pomalidomide-dependent degradation compared with parent ZF ([1]; pomalidomide): more efficient pomalidomide-dependent degradation than either parent ZF |
